Results published in ChEMBL document CHEMBL1275354, “Anticonvulsant activity of 2,4(1H)-diarylimidazoles in mice and rats acute seizure models” (Bioorg Med Chem, 2010).
Activity calls are given as the source filed them. No cut-off for these calls is given here.

Legend:
Mus musculus [1] = test: Anticonvulsant activity in albino CF1 mouse assessed as protection against subcutaneous metrazole-induced seizures at 100 mg/kg, ip after 0.5 hrs; format: functional, organism-based; design: dose 100 mg/kg
Mus musculus [2] = test: Neurotoxicity in albino CF1 mouse assessed as minimal motor impairment at 100 mg/kg, ip after 4 hrs by rotarod test; format: toxicity, organism-based; design: dose 100 mg/kg, route intraperitoneal; details: in vivo
Mus musculus [3] = test: Anticonvulsant activity in albino CF1 mouse assessed as protection against maximal electroshock-induced seizures at 30 mg/kg, ip after 0.5 hrs; format: functional, organism-based; design: dose 30 mg/kg
Mus musculus [4] = test: Anticonvulsant activity in albino CF1 mouse assessed as protection against maximal electroshock-induced seizures at 100 mg/kg, ip after 4 hrs; format: functional, organism-based; design: dose 100 mg/kg
Mus musculus [5] = test: Neurotoxicity in albino CF1 mouse assessed as minimal motor impairment at 300 mg/kg, ip after 4 hrs by rotarod test; format: toxicity, organism-based; design: dose 300 mg/kg, route intraperitoneal; details: in vivo
Mus musculus [6] = test: Neurotoxicity in albino CF1 mouse assessed as minimal motor impairment at 30 to 300 mg/kg, ip after 0.5 hrs by rotarod test; details: in vivo
Mus musculus [7] = test: Neurotoxicity in ip dosed albino CF1 mouse assessed as minimum dose required to cause toxicity after 0.5 hrs by rotarod test; format: organism-based; details: in vivo
Mus musculus [8] = test: Anticonvulsant activity in albino CF1 mouse assessed as protection against maximal electroshock-induced seizures at 300 mg/kg, ip after 0.5 hrs; format: functional, organism-based; design: dose 300 mg/kg
Mus musculus [9] = test: Anticonvulsant activity against maximal electroshock-induced seizures in ip dosed albino CF1 mouse assessed as minimum effective dose after 4 hrs; format: functional; details: read-out: MED
Mus musculus [10] = test: Anticonvulsant activity in albino CF1 mouse assessed as protection against subcutaneous metrazole-induced seizures at 100 mg/kg, ip after 4 hrs; format: functional, organism-based; design: dose 100 mg/kg
Mus musculus [11] = test: Anticonvulsant activity against subcutaneous metrazole-induced seizures in ip dosed albino CF1 mouse assessed as minimum effective dose after 4 hrs; format: functional; details: albino CF1, 4 h, read-out: MED
Mus musculus [12] = test: Anticonvulsant activity against subcutaneous metrazole-induced seizures in ip dosed albino CF1 mouse assessed as minimum effective dose after 0.5 hrs; format: functional; details: albino CF1, 0.5 h, read-out: MED
Mus musculus [13] = test: Anticonvulsant activity in albino CF1 mouse assessed as protection against maximal electroshock-induced seizures at 30 mg/kg, ip after 4 hrs; format: functional, organism-based; design: dose 30 mg/kg
Mus musculus [14] = test: Neurotoxicity in albino CF1 mouse assessed as minimal motor impairment at 30 to 300 mg/kg, po after 4 hrs by rotarod test; format: toxicity, organism-based; design: dose 30-300 mg/kg, route oral; details: in vivo
Mus musculus [15] = test: Neurotoxicity in albino CF1 mouse assessed as minimal motor impairment at 30 mg/kg, ip after 0.5 hrs by rotarod test; format: toxicity, organism-based; design: dose 30 mg/kg, route intraperitoneal; details: in vivo
Mus musculus [16] = test: Neurotoxicity in ip dosed albino CF1 mouse assessed as minimum dose required to cause toxicity after 4 hrs by rotarod test; format: organism-based; details: in vivo
Mus musculus [17] = test: Anticonvulsant activity in albino CF1 mouse assessed as protection against subcutaneous metrazole-induced seizures at 30 mg/kg, ip after 0.5 hrs; format: functional, organism-based; design: dose 30 mg/kg
Mus musculus [18] = test: Anticonvulsant activity against maximal electroshock-induced seizures in ip dosed albino CF1 mouse assessed as minimum effective dose after 0.5 hrs; format: functional; details: read-out: MED
Mus musculus [19] = test: Neurotoxicity in albino CF1 mouse assessed as minimal motor impairment at 30 mg/kg, ip after 4 hrs by rotarod test; format: toxicity, organism-based; design: dose 30 mg/kg, route intraperitoneal; details: in vivo
Mus musculus [20] = test: Neurotoxicity in albino CF1 mouse assessed as minimal motor impairment at 300 mg/kg, ip after 0.5 hrs by rotarod test; format: toxicity, organism-based; design: dose 300 mg/kg, route intraperitoneal; details: in vivo
Mus musculus [21] = test: Anticonvulsant activity in albino CF1 mouse assessed as protection against subcutaneous metrazole-induced seizures at 30 mg/kg, ip after 4 hrs; format: functional, organism-based; design: dose 30 mg/kg
Mus musculus [22] = test: Anticonvulsant activity in albino CF1 mouse assessed as protection against maximal electroshock-induced seizures at 300 mg/kg, ip after 4 hrs; format: functional, organism-based; design: dose 300 mg/kg
Mus musculus [23] = test: Neurotoxicity in albino CF1 mouse assessed as minimal motor impairment at 100 mg/kg, ip after 0.5 hrs by rotarod test; format: toxicity, organism-based; design: dose 100 mg/kg, route intraperitoneal; details: in vivo
Mus musculus [24] = test: Anticonvulsant activity in albino CF1 mouse assessed as protection against subcutaneous metrazole-induced seizures at 300 mg/kg, ip after 4 hrs; format: functional, organism-based; design: dose 300 mg/kg
Mus musculus [25] = test: Anticonvulsant activity in albino CF1 mouse assessed as protection against subcutaneous metrazole-induced seizures at 300 mg/kg, ip after 0.5 hrs; format: functional, organism-based; design: dose 300 mg/kg
Mus musculus [26] = test: Anticonvulsant activity in albino CF1 mouse assessed as protection against maximal electroshock-induced seizures at 100 mg/kg, ip after 0.5 hrs; format: functional, organism-based; design: dose 100 mg/kg

Row | SMILES | Activity (Mus musculus [1]) | Activity (Mus musculus [2]) | Activity (Mus musculus [3]) | Activity (Mus musculus [4]) | Activity (Mus musculus [5]) | Activity (Mus musculus [6]) | MED (Mus musculus [7]) [mg/kg] | Activity (Mus musculus [8]) | minimal effective dose (Mus musculus [9]) [mg/kg] | Activity (Mus musculus [10]) | minimal effective dose (Mus musculus [11]) [mg/kg] | minimal effective dose (Mus musculus [12]) [mg/kg] | Activity (Mus musculus [13]) | Activity (Mus musculus [14]) | Activity (Mus musculus [15]) | MED (Mus musculus [16]) [mg/kg] | Activity (Mus musculus [17]) | minimal effective dose (Mus musculus [18]) [mg/kg] | Activity (Mus musculus [19]) | Activity (Mus musculus [21]) | further results
1 | c1ccc(-c2c[nH]c(-c3ccoc3)n2)cc1 | inactive | Non-toxic | inactive | inactive | Toxic | Non-toxic | 100 | Active | > 300 | inactive | > 300 | > 300 | inactive | Non-toxic | Non-toxic | > 100 | inactive | 100 | Non-toxic | inactive | Activity (Mus musculus [20]): Toxic
2 | Clc1cccc(-c2nc(-c3ccccc3)c[nH]2)c1 | inactive | Non-toxic | inactive | inactive | Non-toxic | Non-toxic | 100 | Active | 100 | inactive | > 300 | 100 | inactive | Non-toxic | Non-toxic | > 300 | inactive | 100 | Non-toxic | inactive | Activity (Mus musculus [22]): Active; Activity (Mus musculus [23]): Non-toxic; Activity (Mus musculus [24]): inactive; Activity (Mus musculus [25]): Active
3 | c1ccc(-c2c[nH]c(-c3ccsc3)n2)cc1 | inactive | Non-toxic | inactive | inactive |  | Non-toxic | 100 | Active | > 300 | inactive | > 300 | > 300 | inactive | Non-toxic | Non-toxic | > 300 | inactive | 100 | Non-toxic | inactive | Activity (Mus musculus [24]): inactive; Activity (Mus musculus [26]): Active; Activity (Mus musculus [25]): inactive
4 | c1ccc(-c2c[nH]c(-c3ccncc3)n2)cc1 | inactive | Non-toxic | inactive |  | Toxic | Non-toxic | 100 | Active | 100 | inactive | > 300 | > 300 | inactive |  | Non-toxic | 100 | inactive | 100 | Non-toxic | inactive | Activity (Mus musculus [22]): Active; Activity (Mus musculus [20]): Toxic; Activity (Mus musculus [25]): inactive
5 | O=[N+]([O-])c1ccc(-c2nc(-c3ccccc3)c[nH]2)cc1 | inactive | Non-toxic | inactive |  | Non-toxic | Non-toxic | > 300 | Active | 100 | inactive | 100 | > 300 | inactive | Non-toxic | Non-toxic | > 300 | inactive | 100 | Non-toxic | inactive | Activity (Mus musculus [22]): Active; Activity (Mus musculus [23]): Non-toxic; Activity (Mus musculus [20]): Non-toxic; Activity (Mus musculus [25]): inactive
6 | COc1cccc(-c2nc(-c3ccccc3)c[nH]2)c1 | inactive | Non-toxic | inactive |  | Non-toxic | Non-toxic | > 30 | Active | 100 | inactive | > 300 | > 300 | inactive | Non-toxic | Non-toxic | > 300 | inactive | > 30 | Non-toxic | inactive | Activity (Mus musculus [22]): Active; Activity (Mus musculus [23]): Toxic; Activity (Mus musculus [26]): Active
7 | FC(F)(F)c1ccc(-c2c[nH]c(-c3ccccc3)n2)cc1 | inactive | Non-toxic | inactive | inactive | Toxic | Non-toxic | 100 | Active | > 300 | inactive | 100 | > 300 | inactive | Non-toxic | Non-toxic | 100 | inactive | 100 | Non-toxic | inactive | Activity (Mus musculus [24]): Active; Activity (Mus musculus [25]): inactive
8 | c1ccc(-c2c[nH]c(C3CCCCC3)n2)cc1 |  | Non-toxic | inactive | inactive | Non-toxic | Non-toxic | 100 |  | > 300 | inactive | > 300 | > 300 | inactive | Non-toxic | Non-toxic | > 300 | inactive | > 300 | Non-toxic | inactive | Activity (Mus musculus [22]): inactive; Activity (Mus musculus [26]): inactive
9 | c1ccc(-c2c[nH]c(-c3cc4ccccc4o3)n2)cc1 | inactive | Non-toxic | inactive | inactive |  | Non-toxic | > 300 | inactive | > 300 | inactive | > 300 | > 300 | inactive | Non-toxic | Non-toxic | > 300 | inactive | > 300 | Non-toxic | inactive | Activity (Mus musculus [22]): inactive; Activity (Mus musculus [24]): inactive; Activity (Mus musculus [26]): inactive; Activity (Mus musculus [25]): inactive
